Test results published in patent US20070166547A1, “Use of a layer consisting of hydrophobic linear, or two-dimensional polycyclic aromatics as a barrier layer or an encapsulation and electric components constructed with a layer of this type and comprising organic polymers” (priority 2003, published 2007).
Marks after values point to notes of the source that are not given here.

Assays:
[1] = test system: indicator enzymes in blood plasma; experiment: Morphine abstinence model: indicator enzymes AST, ALT, γ-GTP in blood plasma; format: in vivo, rats Wistar; details: for ALT, Ci, mE/l, Control + compound / AST, Ci, mE/l, Control + compound / γ-GTP, Ci, mE/l, Control + compound: compound alone 20.0 mg/kg intramuscularly; for ALT, Ci, mE/l, control + Morphine + Compound / AST, Ci, mE/l, control + Morphine + Compound / γ-GTP, Ci, mE/l, control + Morphine + Compound: morphinized rats then compound 20.0 mg/kg intramuscularly
Procedure: The experiments were carried out on rats in series of 7 animals on each compound according to the invention. Non-morphinized animal with not administered with compounds according to the invention were used as a control group. […] Then the rats were decapitated, the blood from somnolent arteries was collected in test tubes with solution EDTA as an anticoagulant, centrifuged at 1500 g for 15 minutes at 4° C.
To estimate possible hepatoprotective action of the compounds according to the invention under conditions of development of an oxidizing stress in the liver cells, effect of these compounds on the most important biochemical blood indexes, in particular, on the content in blood plasma of indicator enzyme of aspartateaminotransferase (AST), alanineaminotransferase (ALT), γ-glutamiletranspeptidase (γ-GTP) was investigated. The content of enzymes was estimated by their catalyzing activity in blood plasma.
The activity of AST, ALT and γ-GTP was determined by means of diagnostic sets DiaSys, Germany.

[2] = Polarographic study of electrochemical reduction (electrochemical activity); format: physicochemical; details: for number of electrons participating in the reduction: calculated with the Geirovsky-Ilkovich equation; for i, mkA (polarographic wave current) / −E1/2, V (half-wave potential vs SCE): 37° C., forward trace, average for the group; for i, mkA (polarographic wave current): 9·10^−4 M; for half-wave potential more positive on reverse stroke than on forward stroke: reverse stroke vs forward stroke
Method in brief: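 DC polarography at 37 °C on a dropping mercury electrode (0.5 s drop) against SCE with a Pt auxiliary electrode. Compounds at 9·10^−4 M in N2-purged 2.0% NaCl at pH 7.0–7.6, scanned 0 to −0.5 V at 10.0 mV/s. E1/2 and ilim were determined graphically; electron number was derived by Heyrovsky–Ilkovič analysis.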

[3] = test system: plasma hemostasis; experiment: Thrombin time after intravenous administration; format: in vivo, rabbit
Procedure: The investigations were performed on 72 rabbits of the “Chinchilla” breed with a mass of 2.5±0.3 kg, who were administered which solutions of compounds 2, 15, 21, 37 in doses of 15, 30 and 60 mg/kg intravenously. The experiments included the thrombin-test (series No. 7300) and the coagulability-test (series No. 5000) purchased from the scientific-and-production association (SPA) “Renam”, thromboplastin (series No. 240600) and calcium chloride purchased from the SPA “MedioLab”
The static parameters of the blood and plasma coagulation (partial activated thromboplastin time, thrombin time, maximum coagulation activity (test for auto coagulation) were determined using the Behnk Electronic coagulometer (Germany). The operating principle of this instrument is based on the fact that the formed blood clot breaks the contacts of the pulse counter in the flask-pin circuit, said pin permanently oscillating in a vertical plane. The moment of formation of the clot is registered by stopping the stop watch hand.
The measurements were effected at a constant temperature of 37° C. maintained by a temperature control unit.
The “thrombin time” characterizes the rate of transformation of fibrinogen into fibrin. It was determined by measuring the coagulation time of plasma deprived of thrombocytes under the effect of thrombin standardized by the control plasma.
0.2 ml of a thrombin solution was added to 0.2 ml of the test blood plasma of experimental animals, from whom the blood was taken 15, 30, 60 and 120 minutes after the intravenous administration of compounds 2, 15, 21, 37 according to the invention in doses of 15, 30, 60 mg/kg incubated for 1 minute at a temperature of 37° C. and the time of formation of clot T2 in seconds in a coagulometer of the Behnk Electronic Company (Germany).

[4] = test system: thymus; experiment: Morphine abstinence model: thymus condition; format: in vivo, rats; details: compound alone

Structure (SMILES) | number of electrons participating in the reduction [2] | i, mkA (polarographic wave current) ([2]; pH 7.0) | −E1/2, V (half-wave potential vs SCE) ([2]; pH 7.0) | i, mkA (polarographic wave current) ([2]; pH 7.2) | i, mkA (polarographic wave current) ([2]; pH 7.4) | −E1/2, V (half-wave potential vs SCE) ([2]; pH 7.4) | i, mkA (polarographic wave current) ([2]; pH 7.6) | −E1/2, V (half-wave potential vs SCE) ([2]; pH 7.6) | T2, s After 120 minutes (thrombin time) ([3]; dose 15.0 mg/kg intravenously) | T2, s after 15 minutes (thrombin time) ([3]; dose 15.0 mg/kg intravenously) | T2, s after 30 minutes (thrombin time) ([3]; dose 15.0 mg/kg intravenously) | T2, s after 60 minutes (thrombin time) ([3]; dose 15.0 mg/kg intravenously) | T2, s After 120 minutes (thrombin time) ([3]; dose 30.0 mg/kg intravenously) | T2, s after 15 minutes (thrombin time) ([3]; dose 30.0 mg/kg intravenously) | T2, s after 30 minutes (thrombin time) ([3]; dose 30.0 mg/kg intravenously) | T2, s after 60 minutes (thrombin time) ([3]; dose 30.0 mg/kg intravenously) | T2, s After 120 minutes (thrombin time) ([3]; dose 60.0 mg/kg intravenously) | T2, s after 15 minutes (thrombin time) ([3]; dose 60.0 mg/kg intravenously) | T2, s after 30 minutes (thrombin time) ([3]; dose 60.0 mg/kg intravenously) | T2, s after 60 minutes (thrombin time) ([3]; dose 60.0 mg/kg intravenously) | further results
Nc1cccc2c(=O)[nH][nH]c(=O)c12.[Na] [Compound 15, sodium salt of 5-amino-benzo[d]-3H-pyridazine-1,4-dione] | 4.09 | 0.23 ± 0.03 mkA | 0.092 ± 0.02 V | 0.30 ± 0.01 mkA | 0.29 ± 0.02 mkA | 0.092 ± 0.02 V | 0.31 ± 0.02 mkA | 0.09 ± 0.01 V | 15.5* s | 17.0* s | 18.5* s | 16.5* s | 15.0* s | 19.7* s | 20.5* s | 21.3* s | 14.7* s | 16.8* s | 18.0* s | 16.5* s | ALT, Ci, mE/l, Control + compound [1]: 113.48 ± 2.39 mE/l; AST, Ci, mE/l, Control + compound [1]: 173.46 ± 5.63 mE/l; γ-GTP, Ci, mE/l, Control + compound [1]: 7.03 ± 2.82 mE/l; ALT, Ci, mE/l, control + Morphine + Compound [1]: 121.08 ± 5.04 mE/l; AST, Ci, mE/l, control + Morphine + Compound [1]: 195.57 ± 18.68 mE/l; γ-GTP, Ci, mE/l, control + Morphine + Compound [1]: 10.69 ± 1.84 mE/l; −E1/2, V (half-wave potential vs SCE) ([2]; pH 7.2): 0.09 ± 0.01 V; half-wave potential more positive on reverse stroke than on forward stroke [2]: 30.0 mV; Nitrites, thymus Supernatant, Administration of compounds [4]: 0.407 ± 0.02 nmol/mg of protein; Thymus mass, Administration of compounds [4]: 298 ± 25 mg
O=c1[nH][nH]c(=O)c2nccnc12.[Li] [Compound 25, lithium salt of pyrazine[2,3-d]-6H-pyridazine-5,8-dione] | 3.72 | 0.32 ± 0.03 mkA | 0.16 ± 0.02 V | 0.33 ± 0.04 mkA | 0.34 ± 0.03 mkA | 0.175 ± 0.01 V | 0.34 ± 0.02 mkA | 0.16 ± 0.015 V |  |  |  |  |  |  |  |  |  |  |  |  | ALT, Ci, mE/l, Control + compound [1]: 115.27 ± 1.09 mE/l; AST, Ci, mE/l, Control + compound [1]: 177.34 ± 6.13 mE/l; γ-GTP, Ci, mE/l, Control + compound [1]: 7.57 ± 1.93 mE/l; ALT, Ci, mE/l, control + Morphine + Compound [1]: 121.96 ± 3.4 mE/l; AST, Ci, mE/l, control + Morphine + Compound [1]: 196.46 ± 15.34 mE/l; γ-GTP, Ci, mE/l, control + Morphine + Compound [1]: 11.37 ± 1.54 mE/l; −E1/2, V (half-wave potential vs SCE) ([2]; pH 7.2): 0.19 ± 0.02 V; half-wave potential more positive on reverse stroke than on forward stroke [2]: 20.0 mV; Nitrites, thymus Supernatant, Administration of compounds [4]: 0.417 ± 0.02 nmol/mg of protein; Thymus mass, Administration of compounds [4]: 254 ± 14 mg
Nc1ncc2c(=O)[nH][nH]c(=O)c2n1 [Compound 36, 2-amino-pyrimido[4,5-d]-6H-pyridazine-5,8-dione] | 3.5 | 0.30 ± 0.05 mkA | 0.08 ± 0.02 V | 0.26 ± 0.02 mkA | 0.30 ± 0.03 mkA | 0.085 ± 0.02 V | 0.30 ± 0.02 mkA | 0.09 ± 0.02 V |  |  |  |  |  |  |  |  |  |  |  |  | 
O=c1[nH][nH]c(=O)c2c(Br)ncnc12.[K] [Compound 37, potassium salt of 4-bromine-pyrimido[4,5-D]-6H-pyridazine-5,8-dione] |  |  |  |  |  |  |  |  | 15.6* s | 16.9* s | 18.2* s | 16.3* s | 15.2* s | 19.5* s | 20.3* s | 21.0* s | 15.0* s | 16.6* s | 17.8* s | 16.2* s | ALT, Ci, mE/l, Control + compound [1]: 113.84 ± 2.0 mE/l; AST, Ci, mE/l, Control + compound [1]: 174.82 ± 4.91 mE/l; γ-GTP, Ci, mE/l, Control + compound [1]: 8.14 ± 2.64 mE/l; ALT, Ci, mE/l, control + Morphine + Compound [1]: 120.84 ± 5.20 mE/l; AST, Ci, mE/l, control + Morphine + Compound [1]: 193.58 ± 14.18 mE/l; γ-GTP, Ci, mE/l, control + Morphine + Compound [1]: 10.32 ± 2.67 mE/l; Nitrites, thymus Supernatant, Administration of compounds [4]: 0.410 ± 0.01 nmol/mg of protein; Thymus mass, Administration of compounds [4]: 263 ± 21 mg
Nc1cnc2c(=O)n([C@@H]3O[C@H](CO)[C@@H](O)[C@H]3O)[nH]c(=O)c2n1.[Na] [Compound 21, sodium salt of 3-amino-7-(β-D-ribofuranosile)pyrazine[2,3-d]-6H-pyridazine-5,8-dione] |  |  |  |  |  |  |  |  | 15.7* s | 16.4* s | 17.7* s | 16.1* s | 15.6* s | 17.9* s | 18.8* s | 19.0* s | 15.7* s | 16.2* s | 17.7* s | 16.3* s | 
O=c1[nH]n([C@@H]2O[C@H](CO)[C@@H](O)[C@H]2O)c(=O)c2nc(O)cnc12.[Na].[Na] [Compound 23, disodium salt of 2-hydroxy-7-(β-D-ribofuranosile)pyrazine[2,3-Cl]-6H-pyridazine-5,8-dione] | 3.72 | 0.32 ± 0.03 mkA | 0.16 ± 0.02 V | 0.33 ± 0.04 mkA | 0.34 ± 0.03 mkA | 0.175 ± 0.01 V | 0.34 ± 0.02 mkA | 0.16 ± 0.015 V |  |  |  |  |  |  |  |  |  |  |  |  | −E1/2, V (half-wave potential vs SCE) ([2]; pH 7.2): 0.19 ± 0.02 V; half-wave potential more positive on reverse stroke than on forward stroke [2]: 20.0 mV
Nc1ccnc2c(=O)n([C@@H]3O[C@H](CO)[C@@H](O)[C@H]3O)[nH]c(=O)c12 [Compound 2, 4-amino-7-(β-D-ribofuranosile)pyrido[2,3-d]-6H-pyridazine-5,8-dione] |  |  |  |  |  |  |  |  | 15.3* s | 16.2* s | 17.0* s | 16.0* s | 15.3* s | 17.8* s | 18.4* s | 19.2* s | 15.3* s | 16.0* s | 16.9* s | 15.9* s | 
